From US20070072807A1, “Method of screening compounds” (SmithKline Beecham Corporation & SmithKline Beecham p.l.c., priority 1999, published 2007)
Numbered stars: 1 amine (or outer) side, 2 acyl side, 3 side chain; on linkers, the order of the positions; unused ones are H or OH. Square brackets hold non-standard residues; d marks the D form. Peptide text beside a SMILES is read from it. * marks the point of attachment. Hexanoyl(5S-NH,4S-OH,6-Ph) = O=C(CC[C@H](O)[C@H](Cc1ccccc1)N[*:1])[*:2]; X2 = Nc1ccc2c(c1)Oc1ccccc1C21OC(=O)c2cc(C(=O)*)ccc21; X1 = CC(C)C[C@H](N[*:1])[C@@H](O)CCC(=O)[*:2]

Tests used:
Asp1 [1] = target: T1, Asp1 (Homo sapiens, UniProt Q9Y5Z0); assay: Fluorescence Resonance Energy Transfer (FRET) cleavage assay for Asp1; assay type: biochemical
T1 construct: A cDNA fragment encoding Asp1(EP0848062), amino acids 1 to 473; made in house; host or cells: CHO E1A (Chinese hamster ovary)
T1 sequence (Q9Y5Z0 with tags, fused parts or gaps limits assumed): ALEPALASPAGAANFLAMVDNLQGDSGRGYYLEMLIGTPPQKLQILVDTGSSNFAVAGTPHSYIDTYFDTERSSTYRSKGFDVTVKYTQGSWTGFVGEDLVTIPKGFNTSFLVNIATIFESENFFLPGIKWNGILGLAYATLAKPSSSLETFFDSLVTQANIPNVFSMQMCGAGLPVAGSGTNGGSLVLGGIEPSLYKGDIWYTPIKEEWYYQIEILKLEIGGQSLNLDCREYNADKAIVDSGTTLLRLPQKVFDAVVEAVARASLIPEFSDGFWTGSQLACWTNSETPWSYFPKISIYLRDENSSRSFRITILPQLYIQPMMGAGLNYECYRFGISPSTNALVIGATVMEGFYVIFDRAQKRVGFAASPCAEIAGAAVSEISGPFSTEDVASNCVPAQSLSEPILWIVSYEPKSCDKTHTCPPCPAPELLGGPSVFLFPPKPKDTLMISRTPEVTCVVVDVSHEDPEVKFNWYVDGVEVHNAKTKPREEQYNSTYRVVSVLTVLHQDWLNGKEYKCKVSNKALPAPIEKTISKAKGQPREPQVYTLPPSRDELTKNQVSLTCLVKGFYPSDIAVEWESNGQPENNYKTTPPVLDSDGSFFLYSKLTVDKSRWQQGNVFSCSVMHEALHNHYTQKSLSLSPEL
From the text: Fluorescence Resonsance Energy Transfer (FRET) Cleavage Assay for Asp1
A peptide (X) based on the sequence of the Swedish variant APP beta-site sequence has been doubly labelled for use in a FRET assay. [drawing 2] [drawing 3] This peptide includes the 11 residues spanning the Swedish variant beta-cleavage site (Ile-Ser-Glu-Val-Asn-Leu-Asp-Ala-Glu-Phe-Arg SEQ ID NO:2) with an N-terminal rhodamine green group and C-terminal tetramethylrhodamine group. This would allow cleavage of the intervening peptide sequence by Asp1 to be monitored by energy transfer between the two fluorescent groups.
In practice assays were conducted as follows:
The fluorescent peptide substrate (0.5 uM) was incubated with Asp1-Fc enzyme prepared as described above in a buffer containing 50 mM sodium acetate, 20 mM sodium chloride, 5% glycerol, 0.1% CHAPS (3-[(3-Cholamidopropyl)dimethylammonio]-1-propane-sulphonate), pH 3.8). The assays were started by addition of enzyme (50 nM final concentration) and cleavage monitored on a fluorescent platereader with 485 nm excitation, 538 nm emission. The C-terminal TAMRA group of the peptide acted as effective quencher, thus an increase in rhodamine green intensity was observed upon cleavage.
This assay was used to determine IC50 and Ki values for compounds of interest. […] Asp1 Fluorescence Polarisation Assay.

Asp1 [2] = target: T1, Asp1; assay: Asp1 fluorescence polarisation (competition) binding assay
Description: A competition assay has also been designed to identify compounds acting at the Asp1 active site. The hydroxyethylene inhibitor (I) has been modified by addition of 5-, 6-rhodamine green to the free N-terminal amine of the compound to create labelled ligand (II). [drawing 5]
The resulting compound was tested experimentally as follows to determine the Kd with Asp1-Fc enzyme, prepared as above.
A three dimensional analysis varying enzyme and ligand (II) was performed. Ligand concentration range was 1, 3, 10, 30 and 100 nM. Enzyme concentration range was from 100 nM down in serial twofold dilutions (11 dilutions+no enzyme control).
Ligand of appropriate concentration was prepared in 5% DMSO. The enzyme solutions were prepared in 2 times (×2) assay buffer (where ×1=50 mM sodium acetate, 20 mM sodium chloride, 5% glycerol, 0.1% CHAPS, pH 3.8). 5 ul of the enzyme solution (of varying concentration) was mixed with 5 ul of the ligand (of varying concentration) in a low volume 384 microtitre plate. The samples were allowed to equilibrate for 15 min before the fluorescence polarisation was read on an LJL ACQUEST platereader.
The Anisotropy values were plotted and the Kd for the tight binding interaction obtained.
Enzyme (at a fixed concentration of 50 nM), ligand (II) (at a fixed concentration of 5.0 nM) and test compound (5 uM down in twofold serial dilutions) were mixed in ×1 assay buffer in a final assay volume of 10 ul and allowed to equilibrate for 3 hrs. The fluorescence polarisation was then read. The experiment was performed in duplicate.

SMILES: CC(C)C[C@H](NC(=O)[C@H](C)NC(=O)[C@@H](NC(=O)[C@@H](N)CCC(=O)O)C(C)C)[C@@H](O)CCC(=O)N[C@@H](C)C(=O)N[C@@H](CCC(=O)O)C(=O)N[C@@H](Cc1ccccc1)C(=O)O [Compound (III)] (H-EVA[X1]AEF-OH)
- IC50 (Asp1 [1]; FRET cleavage assay, Asp1-Fc enzyme): 60 nM
- displacement of the fluorescent ligand (II) (Asp1 [2]; at the highest concentrations of test compound (5 uM down in twofold serial dilutions)): Complete displacement
- Ki (Asp1 [2]; competition against ligand (II) 5.0 nM, enzyme 50 nM, equilibrated 3 hrs, duplicate): 50 nM

SMILES: CC(C)[C@H](NC(=O)[C@@H](N)CCC(=O)O)C(=O)N[C@@H](CC(N)=O)C(=O)N[C@@H](Cc1ccccc1)[C@@H](O)CCC(=O)N[C@@H](C)C(=O)N[C@@H](CCC(=O)O)C(=O)N[C@@H](Cc1ccccc1)C(=O)O [compound (I)] (H-EVN[Hexanoyl(5S-NH,4S-OH,6-Ph)]AEF-OH)
- Ki (Asp1 [1]; Asp1-Fc enzyme 50 nM, fluorescent peptide substrate 0.5 uM, pH 3.8): 2.5 nM

SMILES: CC(C)[C@H](NC(=O)[C@H](CCC(=O)O)NC(=O)c1ccc2c(c1)C(=O)OC21c2ccccc2Oc2cc(N)ccc21)C(=O)N[C@@H](CC(N)=O)C(=O)N[C@@H](Cc1ccccc1)[C@@H](O)CCC(=O)N[C@@H](C)C(=O)N[C@@H](CCC(=O)O)C(=O)N[C@@H](Cc1ccccc1)C(=O)O (stereo partly drawn) [ligand (II)] (X2-EVN[Hexanoyl(5S-NH,4S-OH,6-Ph)]AEF-OH)
- Kd (Asp1 [2]; tight binding interaction of labelled ligand with Asp1-Fc enzyme, from anisotropy values, pH 3.8): 0.075 nM
